In article PMC4870834 (Biochemistry, 2015):
pKd: −log10 of the molar value.

Legend:
Test in all cases: intrinsic fluorescence titration
Type in all cases: binding
[1] = molecular target: SULT1A1 (Homo sapiens, UniProt P50225)
[2] = molecular target: SULT1A1 (Homo sapiens, UniProt P50225, F255A)
[3] = molecular target: SULT1A1 (Homo sapiens, UniProt P50225, V243G)
[4] = molecular target: SULT1A1 (Homo sapiens, UniProt P50225, D249S)
[5] = molecular target: SULT1A1 (Homo sapiens, UniProt P50225, I89A)
Chain of SULT1A1 (Homo sapiens, UniProt P50225, I89A) (P50225 whole entry I89A): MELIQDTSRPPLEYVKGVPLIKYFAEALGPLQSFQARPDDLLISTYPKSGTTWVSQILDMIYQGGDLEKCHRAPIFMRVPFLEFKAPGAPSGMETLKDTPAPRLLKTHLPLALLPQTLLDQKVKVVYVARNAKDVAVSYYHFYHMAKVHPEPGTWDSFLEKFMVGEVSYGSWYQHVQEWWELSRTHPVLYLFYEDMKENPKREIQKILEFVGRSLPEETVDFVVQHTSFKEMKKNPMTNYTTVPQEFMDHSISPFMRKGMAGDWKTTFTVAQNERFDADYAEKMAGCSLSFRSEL

Chain of SULT1A1 (Homo sapiens, UniProt P50225, D249S) (P50225 whole entry D249S): as the sequence (P50225 whole entry I89A) above, with A89I, D249S counted along it
Chain of SULT1A1 (Homo sapiens, UniProt P50225, F255A) (P50225 whole entry F255A): as the sequence (P50225 whole entry I89A) above, with A89I, F255A counted along it
Chain of SULT1A1 (Homo sapiens, UniProt P50225) (P50225 whole entry): as the sequence (P50225 whole entry I89A) above, with A89I counted along it
Chain of SULT1A1 (Homo sapiens, UniProt P50225, V243G) (P50225 whole entry V243G): as the sequence (P50225 whole entry I89A) above, with A89I, V243G counted along it

| pKd [1] | pKd [2] | pKd [3] | pKd [4] | pKd [5] | Structure (SMILES) |
| --- | --- | --- | --- | --- | --- |
| 5.82 | 5.70 | 5.66 | 5.66 | 5.74 | Oc1ccc2ccccc2c1 [2-Nap] |
| 5.77 | 5.82 | 5.89 | 5.80 | 5.96 | C[C@]12CC[C@@H]3c4ccc(O)cc4C[C@@H](CCCCCCCCC[S+]([O-])CCCC(F)(F)C(F)(F)F)[C@H]3[C@@H]1CC[C@@H]2O (stereo partly shown) [fulvestrant] |
|  | 6.05 | 6.05 | 6.05 | 5.82 | C[C@]12CC[C@@H]3c4ccc(O)cc4CC[C@H]3[C@@H]1CC[C@@H]2O [E2] |
| 6.57 | 6.57 | 6.55 | 6.52 | 6.51 | Nc1ncnc2c1ncn2[C@@H]1O[C@H](COP(=O)(O)O)[C@@H](OP(=O)(O)O)[C@H]1O [PAP] |
